# Test results from ChEMBL document CHEMBL1158086, “Phenolic marine natural products as aldose reductase inhibitors” (J Nat Prod, 2006).
# Test: Inhibition of human recombinant ALR2
row,Compound,IC50 [µM]
1,O=C(c1ccc(O)cc1)c1cncc(-c2ccc(O)cc2)n1,41.4
2,O=C1O/C(=C\c2ccc(O)c(Br)c2)C(c2ccc(O)cc2)=C1Cl,46.2
3,O=C1O/C(=C\c2cc(Br)c(O)c(Br)c2)C(c2ccc(O)cc2)=C1Cl,0.8
4,O=C1O/C(=C\c2cc(Br)c(O)c(Br)c2)C(c2ccc(O)c(Br)c2)=C1Cl,12.7
5,O=C(c1ccc(O)cc1)c1nc(-c2ccc(O)cc2)c[nH]1,21.4
6,O=C(c1ccc(O)cc1)c1ncc(-c2ccc(O)cc2)nc1C(=O)c1ccc(O)cc1,19.4
7,O=C1C=C(c2ccc(O)cc2)/C(=C/c2cc(Br)c(O)c(Br)c2)O1,> 57
8,O=C1O/C(=C\c2ccc(O)c(Br)c2)C(c2ccc(O)c(Br)c2)=C1Cl,16.9
9,O=C1O/C(=C\c2cc(Br)c(O)c(Br)c2)C(c2cc(Br)c(O)c(Br)c2)=C1Cl,18.7
10,O=c1oc(-c2ccc(O)cc2)cn2cc(-c3ccc(O)c(I)c3)c(-c3ccc(O)cc3)c12 [LUKIANOL B],0.6
11,O=C1C=C(c2cc(Br)c(O)c(Br)c2)/C(=C/c2cc(Br)c(O)c(Br)c2)O1 [RUBROLIDE A],19.8
12,O=C1C=C(c2ccc(O)c(Br)c2)/C(=C/c2cc(Br)c(O)c(Br)c2)O1 [RUBROLIDE J],48.1
13,O=C1NC(=O)[C@@]2(CCOc3ccc(F)cc32)N1 [SORBINIL],3.6
